Values of other authors, collected in patent US11818994B2, “Brachiaria endophytes and related methods” (Agriculture Victoria Services PTY LTD, priority 2015, dated 2023).

Test system: Nitrosomonas spp
Settings: Subbarao et al. 2009

## brachialactone
  biocidal activity against Nitrosomonas spp: biocidal activity
